In ChEMBL document CHEMBL5674860, “Optimized Dual-Glo Assay to identify co-culture-induced drug vulnerabilities in 3D CRC models” (2024):

Key:
Format in all cases: functional, Homo sapiens
Design in all cases: dose or concentration left out as unconfirmed
[1] = tested on: Colon cancer organoid; assay: Optimized Dual-Glo assay to identify co-culture induced drug vulnerabilities using donated chemical probes and chemogenomics kinase set in O14 CRC organoid and F14 CAF mono and co-culture. […] Cell viability is reported both mono and co-culture models.
[2] = tested on: Colon cancer organoid; assay: Optimized Dual-Glo assay to identify co-culture induced drug vulnerabilities using donated chemical probes and chemogenomics kinase set in O06 CRC organoid and F06 CAF mono and co-culture. […] Cell viability is reported both mono and co-culture models.
[3] = tested on: Colon cancer organoid; assay: Optimized Dual-Glo assay to identify co-culture induced drug vulnerabilities using donated chemical probes and chemogenomics kinase set in O20 CRC organoid and F20 CAF mono and co-culture. […] Cell viability is reported both mono and co-culture models.
[4] = Culture type Co-Culture, Transduced with Lucferase2-P2A-EGFP lentivirus
[5] = Culture type Co-Culture, Transduced with Renilla-dsRed lentivirus
[6] = Culture type Mono-Culture, Transduced with Lucferase2-P2A-EGFP lentivirus
[7] = Culture type Mono-Culture, Transduced with Renilla-dsRed lentivirus

Structure (SMILES)	Cell Viability [1, 4] [%]	Cell Viability [1, 5] [%]	Cell Viability [1, 6] [%]	Cell Viability [1, 7] [%]	Cell Viability [2, 4] [%]	Cell Viability [2, 5] [%]	Cell Viability [2, 6] [%]	Cell Viability [2, 7] [%]	Cell Viability [3, 4] [%]	Cell Viability [3, 5] [%]	Cell Viability [3, 6] [%]	Cell Viability [3, 7] [%]
COc1cc2c(cc1NS(=O)(=O)c1ccc(Br)cc1C)n(C)c(=O)n2C	78.4023	92.6515	95.4962	108.084	53.0589	146.987	78.5311	120.075	86.3374	193.757	91.9028	113.163
CCC(=N\O)/C(C)=C/c1ccc(F)c(C)c1 [A-226]	99.1206	103.384	109.979	105.569	127.798	151.161	120.98	100.434	93.31	115.263	126.956	103.634
Cn1nc(C(=O)NCc2ccc(C(=O)O)cc2)cc1-c1ccc2[nH]ccc2c1 [BI 4395]	58.8492	93.1183	115.617	91.6294	92.221	114.828	85.3335	79.5775	100.657	92.7545	82.9051	93.5086
CCc1ccccc1C(=O)Nc1n[nH]c2c(C)c(F)c(C3C(C#N)=C(C)N(C)C(C)=C3C#N)cc12 [BAY-3827]	89.6646	118.565	81.9788	77.2526	80.578	109.489	83.7184	82.828	74.4041	157.673	58.8443	110.691
C[C@H]1CCCN1Cc1nc2cc(NC(=O)c3ccc4cnccc4c3)ccc2[nH]1	60.7566	146.013	100.332	105.964	122.515	131.721	188.522	107.295	98.572	149.477	83.1729	94.0651
C[C@@H](c1cccc(C#N)c1)n1cc(Cl)cc(C(N)=O)c1=N.Cl	96.0836	104.787	81.7502	103.626	92.5611	127.503	97.2998	98.9566	64.263	72.4154	105.334	111.16
CCN(Cc1ccc(Cl)cc1)c1ncc(C(=O)NCCCN2CCCC2=O)c(NC2CCCC2)n1	82.1387	108.641	123.72	100.116	130.769	112.754	126.765	120.519	67.2116	104.655	126.603	126.47
Cc1cc(CN)cc(C)c1-c1ncn(C)c1-c1ccnc2cc(F)ccc12.Cl	87.6168	103.014	105.617	97.8671	105.057	123.721	137.219	129.63	143.957	87.6481	139.188	92.4746
Cl.O=C([C@@H](Cc1cccc(C(F)(F)F)c1)NS(=O)(=O)c1cc(F)c2c(c1)CCNC2)N1CCCC1	99.1964	106.618	90.5758	109.686	84.043	115.078	78.4722	93.27	152.168	150.248	145.099	80.4285
